Patent US20100055169A1, “CATIONIC LIPIDS AND USES THEREOF” (ABBOTT LABORATORIES, priority 2008, published 2010)
One block for each compound: values may come before it.

Columns and labels:
Format in all cases: physicochemical
[1] = RiboGreen assay of siRNA encapsulation efficiency, in vitro formulations of Lipid-Based Particles; settings: lipid:siRNA 25:1
Description: The mixing solution of cationic lipids, cholesterol, non-cationic lipids and PEG-lipids was prepared in ethanol (total concentration at 10 mg/mL). siSTABLE (purchased from ThermoFisher) (sense-5′ GGGGAAAGCUGGCAAGAUUUU-3′SEQ ID NO. 1, antisense-5′-AAUCUUGCCAGCUUUCCCCUU-3′ SEQ ID NO: 2) % stock solution was prepared in 10 mg/mL of solution by dissolving 10 mg siRNA in 1 mL of RNAse-free UltraPure Water. The calculated amount of siRNA solution was added to 1 mL of citrate buffer (pH 4.0, 20 mM), to provide an siRNA concentration of 0.2 mg/mL, and warmed to 60 C. The calculated amount of lipid solution was warmed to 60 C, transferred to a 0.5 mL syringe with 28½ gauge needle, and injected into the citrate buffer with stirring at 60 C. After 3 minutes, 3 mL of PBS solution at room temperature (pH 7.4) was added into the lipid mixture with stirring. The Lipid-Based Particle solution was cooled to room temperature.
(§1) The siRNA concentrations were measured using Quanti-iT RiboGreen RNA reagent (Molecular Probes, (R11490)). Vesicle sizes were characterized by dynamic light scattering with a DynaPro™ Plate Reader (Wyatt Technology) in 96-well half-area UV plate (Coring) after diluting the formulation sample (20 μL) in phosphate buffered saline (80 μL) at a pH of about 7-8. A 1% agarose gel-based assay was used for analyzing nuclease degradation and protection. Encapsulation efficiency (EE) was calculated using data obtained from a RiboGreen assay.
(§2) RNA concentration and encapsulation efficiency were determined using a Quant-iT® Ribogreen RNA reagent and kit available from Invitrogen. The siRNA was released from the Lipid-Based Particle using one of the following reagents: ethanol, Triton X-100, or phenol/chloroform. The siRNA concentration is quantified using fluorescent reading at 480 nm/520 nm.

[2] = Particle sizing by dynamic light scattering (DynaPro plate reader), in vitro formulations; settings: in vitro formulation a: Cationic lipid/Example 73/DSPC/Chol 45/10/15/30 wt %, lipid:siRNA 25:1
Description: as §1
Particle sizes and size distributions (PDI) were characterized by using dynamic light scattering (DLS). A DLS plate reader (Dynapro™, Wyatt Technology) was used for the DLS measurement. This DLS plate reader uses an 830 nm laser and the scattering angle is 158°. It also can control temperature from 4° C. to 70° C. A 96-well format was employed for the samples.
Samples for DLS analysis were prepared by mixing 20 μL of each sample stock solution with 80 μL PBS directly in the 96-well plate (#3697, Corning). Sample mixing was accomplished using a microplate shaker (Orbis, Mikura Ltd.). Plates were read at 20° C. with an acquisition time of 50 seconds for each sample, and data was analyzed with Wyatt Technology's Dynamics V6 software. To rule out potential multiple scattering artifacts, a second plate at 4-fold reduced sample concentrations was independently prepared by mixing 5 μL stock solutions with 95 μL PBS. Under our experimental conditions the results at the two concentrations were very similar, and the final reported result for each sample represents the average of values obtained from the two plates.

[3] = RiboGreen assay of siRNA encapsulation efficiency, in vivo formulations of Lipid-Based Particles; settings: lipid:siRNA 25:1
Description: as §2
The lipid solution was prepared (10 mg/ml) by dissolving the lipid in 200 proof ethanol. The lipid mixture solution is prepared according to the above composition in Table 5.
An siRNA (TetR_ODC—12, G.G.G.G.A.A.A.G.C.U.G.G.C.A.A.G.A.U.U.U.U SEQ ID NO: 1) (ThermoFisher) solution is prepared in a concentration of 10 mg/ml by dissolving 10 mg siRNA in 1 ml of DNAse/RNAse-free distilled water.
(§3) A round bottom flask was submerged into a 65° C. water bath. Citrate buffer (37.5 ml) of pH 4.0 was pipetted into the flask. The solution was stirred by a magnetic stirring bar at a speed of 900 rpm. Both the pH 4.0 citrate buffer and the lipid solution were pre-warmed in the 65° C. water bath for about 3 minutes. A siRNA solution (0.5 ml) was pipetted into the pH 4.0 citrate buffer. The 12.5 ml lipid mixture solution was injected through a 27 gauge needle into the citrate buffer in about 30 seconds. The needle tip was inserted into the solution during the injection. The resulting solution was stirred for 5 minutes at a speed of 900 rpm. The flask was pulled up from the water bath and a 50 ml pH 7.4 PBS buffer was added into the flask. The final solution was further mixed at a speed of 900 rpm for 5 minutes. For the diafiltration process, a dialysis filter (Millipore, 100K, Cat#PXB100C50) was used to remove ethanol in the above solution. When the volume was reduced to 20 ml during the initial diafiltration, 20 ml of pH 7.4 PBS was added to the sample solution. The diafiltration was continued until the volume was reduced to 20 ml. The diafiltration process was repeated 4 times. The volume of the sample solution was reduced to about 12 ml and pH 7.4 PBS was added to make the final volume of 15 ml. The 15 ml solution was filtered sequentially through the 0.45 and 0.22 μm sterile PVDF membrane filters (Millipore) and immediately transferred into a sterile vial.

[4] = Particle sizing assay (Zetasizer Nano ZS), in vivo formulations; settings: lipid:siRNA 25:1
Description: as §3
For measurements of particle sizes and size distributions (PDI), lipid-based particles were prepared as described above. The particle solution (60 μL) was pipetted into a disposable cuvette (UVette, Eppendorf, cat#952010051) and measured in the “General Purpose” mode. Attenuator and position were optimized by the device. Measurements were performed using a Zetasizer Nano ZS (Malvern Instruments) equipped with a 4 mW He—Ne laser at a wavelength of 633 nm at 25° C. Scattered light was detected at a 173° backward scattering angle. The viscosity and refractive index of water at 25° C. was used for data analysis with the Dispersion Technology Software 5.00 (Malvern Instruments).

[5] = in vivo formulation A: Cationic lipid/Example 73/DSPC/Chol 45/10/15/30 wt %
[6] = in vitro formulation b: Cationic lipid/PEG-cholesterol/DSPC/Chol 45/10/15/30 wt %
[7] = in vivo formulation I: Cationic lipid/PEG-DPPE/DSPC/Chol 45/10/15/30 wt %
[8] = in vivo formulation J: Cationic lipid/PEG-DSPE/DSPC/Chol 45/10/15/30 wt %
[9] = in vivo formulation L: Cationic lipid/PEG-DPG/DSPC/Chol 45/10/15/30 wt %

- % Encapsulation Efficiency ([1]; in vitro formulation a: Cationic lipid/Example 73/DSPC/Chol 45/10/15/30 wt %): 97.2%
- Size [2]: 128 nm
Compound: CCCCC/C=C\C/C=C\CCCCCCCCOC[C@H](CCN(CC)CC)OCCCCCCCC/C=C\C/C=C\CCCCC [Example 23, N-{(3S)-3,4-bis[(9Z,12Z)-octadeca-9,12-dienyloxy]butyl}-N,N-diethylamine]

- % Encapsulation Efficiency [3, 5]: 83.6%
- Size [4, 5]: 89 nm
- Size distribution (PDI) [4, 5]: (0.1)
Compound: CCCCC/C=C\C/C=C\CCCCCCCCOCC(CCN1CCOCC1)OCCCCCCCC/C=C\C/C=C\CCCCC (centres unmarked) [Example 2, 4-{3,4-bis[(9Z,12Z)-octadeca-9,12-dienyloxy]butyl}morpholine]

- % Encapsulation Efficiency [1, 6]: 99%
Compound: CCCCC/C=C\C/C=C\CCCCCCCCOCC(CCN(C)CCCN(C)C)OCCCCCCCC/C=C\C/C=C\CCCCC (centres unmarked) [Example 45, N-{3,4-bis[(9Z,12Z)-octadeca-9,12-dienyloxy]butyl}-N,N′,N′-trimethylpropane-1,3-diamine]

- % Encapsulation Efficiency [1, 6]: 99%
Compound: CCCCC/C=C/C/C=C/CCCCCCCCOCC(CCN1CCCC1)OCCCCCCCC/C=C/C/C=C/CCCCC (centres unmarked) [Example 41, 1-{3,4-bis[(9E,12E)-octadeca-9,12-dienyloxy]butyl}pyrrolidine]

- % Encapsulation Efficiency [1, 6]: 99%
Compound: CCCCCC/C=C/CCCCCCCCOCC(CCN1CCCC1)OCCCCCCCC/C=C/CCCCCC (centres unmarked) [Example 39, 1-{3,4-bis[(9E)-hexadec-9-enyloxy]butyl}pyrrolidine]

- Size [2]: 157 nm
- Size distribution (PDI) [2]: 0.070
Compound: CCCCC/C=C\C/C=C\CCCCCCCCOCC(CCN1CCN(c2ccccc2)CC1)OCCCCCCCC/C=C\C/C=C\CCCCC (centres unmarked) [Example 5, 1-{3,4-bis[(9Z,12Z)-octadeca-9,12-dienyloxy]butyl}-4-phenylpiperazine]

- Size [2]: 178 nm
- Size distribution (PDI) [2]: 0.16
Compound: CCCCC/C=C\C/C=C\CCCCCCCCOCC(CCN1CCN(C)CC1)OCCCCCCCC/C=C\C/C=C\CCCCC (centres unmarked) [Example 6, 1-{3,4-bis[(9Z,12Z)-octadeca-9,12-dienyloxy]butyl}-4-methylpiperazine]

- % Encapsulation Efficiency [1, 6]: 99%
Compound: CCCCC/C=C\C/C=C\CCCCCCCCOCC(CCN1CCCC1C)OCCCCCCCC/C=C\C/C=C\CCCCC (centres unmarked) [Example 50, 1-{3,4-bis[(9Z,12Z)-octadeca-9,12-dienyloxy]butyl}-2-methylpyrrolidine]

- % Encapsulation Efficiency [1, 6]: 99%
Compound: CCCCC/C=C\C/C=C\CCCCCCCCOCC(CCNCCCN1CCCC1)OCCCCCCCC/C=C\C/C=C\CCCCC (centres unmarked) [Example 47, N-{3,4-bis[(9Z,12Z)-octadeca-9,12-dienyloxy]butyl}-N-(3-pyrrolidin-1-ylpropyl)amine]

- Size [2]: 70.9 nm
Compound: CCCCC/C=C\C/C=C\CCCCCCCCOCC(CCN1CCC(N(C)C)CC1)OCCCCCCCC/C=C\C/C=C\CCCCC (centres unmarked) [Example 16, 1-{3,4-bis[(9Z,12Z)-octadeca-9,12-dienyloxy]butyl}-N,N-dimethylpiperidin-4-amine]

The remaining lines, values behind:

Compound: CCCCC/C=C\C/C=C\CCCCCCCCOCC(CCN1CCN(c2ccccc2OC)CC1)OCCCCCCCC/C=C\C/C=C\CCCCC (centres unmarked) [Example 8, 1-{3,4-bis[(9Z,12Z)-octadeca-9,12-dienyloxy]butyl}-4-(2-methoxyphenyl)piperazine]
- Size [2]: 130 nm

Compound: CCCCC/C=C\C/C=C\CCCCCCCCOCC(CCOCCN1CCCC1)OCCCCCCCC/C=C\C/C=C\CCCCC (centres unmarked) [Example 31, 1-(2-{3,4-bis[(9Z,12Z)-octadeca-9,12-dienyloxy]butoxy}ethyl)pyrrolidine]
- % Encapsulation Efficiency [1, 6]: 96.2%
- % Encapsulation Efficiency [3, 5]: 93.3%
- Size [4, 5]: 136 nm
- Size distribution (PDI) [4, 5]: (0.0923)

Compound: CCCCC/C=C\C/C=C\CCCCCCCCC1(CCCCCCC/C=C\C/C=C\CCCCC)OCC(CCN(CC)CC)O1 (centres unmarked) [Example 32, N,N-diethyl-N-(2-{2-[(8Z,11Z)-heptadeca-8,11-dienyl]-2-[(9Z,12Z)-octadeca-9,12-dienyl]-1,3-dioxolan-4-yl}ethyl)amine]
- % Encapsulation Efficiency [1, 6]: 98.6%

Compound: CCCCC/C=C\C/C=C\CCCCCCCCOC[C@H](CCNC(=O)CCN(CC)CC)OCCCCCCCC/C=C\C/C=C\CCCCC [Example 43, N^1-{(3S)-3,4-bis[(9Z,12Z)-octadeca-9,12-dienyloxy]butyl}-N^3,N^3-diethyl-beta-alaninamide]
- % Encapsulation Efficiency [1, 6]: 96.5%

Compound: CCCCC/C=C\C/C=C\CCCCCCCCOCC(CCOCCN1CCN(C)CC1)OCCCCCCCC/C=C\C/C=C\CCCCC (centres unmarked) [Example 28, 1-(2-{3,4-bis[(9Z,12Z)-octadeca-9,12-dienyloxy]butoxy}ethyl)-4-methylpiperazine]
- % Encapsulation Efficiency [1, 6]: 94.3%
- % Encapsulation Efficiency [3, 7]: 99%
- % Encapsulation Efficiency [3, 8]: 99%
- % Encapsulation Efficiency [3, 9]: 99%
- Size [4, 7]: 107.1 nm
- Size distribution (PDI) [4, 7]: (0.025)
- Size [4, 8]: 80.2 nm
- Size distribution (PDI) [4, 8]: (0.026)
- Size [4, 9]: 87 nm
- Size distribution (PDI) [4, 9]: (0.012)

Compound: CCCCC/C=C\C/C=C\CCCCCCCCOCC(CCOCCC1CCCN1C)OCCCCCCCC/C=C\C/C=C\CCCCC (centres unmarked) [Example 26, 2-(2-{3,4-bis[(9Z,12Z)-octadeca-9,12-dienyloxy]butoxy}ethyl)-1-methylpyrrolidine]
- % Encapsulation Efficiency [1, 6]: 99.9%

Compound: CCCCC/C=C\C/C=C\CCCCCCCCOCC(CCN(C)CCc1ccccn1)OCCCCCCCC/C=C\C/C=C\CCCCC (centres unmarked) [Example 10, N-{3,4-bis[(9Z,12Z)-octadeca-9,12-dienyloxy]butyl}-N-methyl-N-(2-pyridin-2-ylethyl)amine]
- Size [2]: 161 nm
- Size distribution (PDI) [2]: 0.168

Compound: CCCCC/C=C\C/C=C\CCCCCCCCOCC(CCN(C)Cc1ccccc1)OCCCCCCCC/C=C\C/C=C\CCCCC (centres unmarked) [Example 11, N-benzyl-N-{3,4-bis[(9Z,12Z)-octadeca-9,12-dienyloxy]butyl}-N-methylamine]
- Size [2]: 154 nm
- Size distribution (PDI) [2]: 0.2

Compound: 1-[3,4-bis(hexadecyloxy)butyl]pyrrolidine [Example 38]
- % Encapsulation Efficiency [1, 6]: 99%
